Results reported in patent US4254124A, “Antidepressant agent” (priority 1979, dated 1981).

What was measured:
mouse [1] = test: Inhibition of pernicious preening in mice (anti-psychotic or analgetic); assay type: in vivo; conditions: oral
Source text: mice (anti-psychotic or analgetic)^3

alpha-adrenergic = test: blood pressure response to 1-epinephrine (alpha-adrenergic blocking action), anesthetized dog; assay type: in vivo
mouse [2] = test: spontaneous motor activity; assay type: in vivo
Source text: More particularly, in the measurement of spontaneous motor activity in the mouse using the device and method described by Kissel in U.S. Pat. No. 3,100,473 patented Aug.

[3] = U.S. Pat. No. 3,381,009; cited from earlier work
mouse [4] = test: reserpine-induced ptosis prevention (oral pretreatment); assay type: in vivo; conditions: for ED50: Mus musculus, po, p.o. before reserpine 2.0 mg./kg. i.v., prevention in 50% of the animals
patients = conditions: cited from earlier work
[5] = ALD50/ATD50 Mouse (lethal toxicity and first signs of pharmacologic activity); conditions: mouse, in vivo, po
Source text: (§1) ^4 Groups of 10 mice treated variously with geometrically increasing
(§2) doses of test compound with observations of lethal toxicity (ALD50)
(§3) and for first signs of pharmacologic activity (ATD50).

dog = test: carotid arterial blood pressure in pentobarbital anesthetized dog; assay type: in vivo; conditions: 1 and 10 mg./kg. intravenously
mouse [6] = test: Reduction of phenylquinone writhing in mice (analgetic); assay type: in vivo; conditions: oral
Source text: Reduction of phenylquinone writhing
^2 Hendershot, et al., J. Pharmacol. & Exptl. Ther. 125, 237 (1959).

[7] = animal tests, propensity for adverse reactions (general statement); assay type: in vivo; conditions: central nervous system depression, hypotensive action, and others; vs trazodone
Protocol: More particularly, in the measurement of spontaneous motor activity in the mouse using the device and method described by Kissel in U.S. Pat. No. 3,100,473 patented Aug. […] In contrast, trazodone at a dose of 15.3 mg./kg. caused a 30% reduction in spontaneous motor activity. […] Other animal test results in which MJ 12762 has been compared to trazodone are arranged in the following table.

mouse [8] = test: Mouse, tail clip (analgetic); assay type: in vivo; conditions: oral
Source text: Mouse, tail clip (analgetic)^1
^1 Bianchi, et al., Brit. J. of Pharmacology 9, 280 (1954).

mouse [9] = test: ALD50/ATD50 Mouse (lethal toxicity and first signs of pharmacologic activity)
Source text: as §1, §2, §3

in vivo = conditions: mouse, po
Source text: as §1, §2, §3

[10] = animal tests, antidepressant activity (general statement); assay type: in vivo
[11] = vs imipramine, Fabre et al. 1979

In the case of `O=c1n(CCCN2CCN(c3cccc(Cl)c3)CC2)nc2ccccn12` [trazodone, 2-[3-[4-(3-chlorophenyl)-1-piperazinyl]propyl]-1,2,4-triazolo[4,3-a]pyridin-3(2H)-one, reference compound], the ED50 (mouse [1]; Mus musculus) is reported as 43 mg/kg, the “effect on the blood pressure response to 1-epinephrine bitartrate (alpha-adrenergic blocking action)” value (alpha-adrenergic; 10 mg./kg. intravenously) is reported as “blocked the effect of 1-epinephrine bitartrate” and the “reduction in spontaneous motor activity” value (mouse [2]; 15.3 mg./kg.) is reported as 30%. The “pharmacological action in various animal tests” value [3] was “tranquilizing action, hypotensive action, and analgesic action”, the ED50 (mouse [4]) was 36 mg/kg and the “adverse reactions sometimes observed in patients” value (patients; endogenous or neurotic depression) was “hypotension,fatigue, drowsiness, and nasal or sinus congestion”. The “antidepressant effectiveness in clinical use” value (patients; [11]) was “equivalent in effectiveness to imipramine”, the “side effects in clinical use” value (patients; [11]) was “fewer side effects” and the TD50 [5] was 2 to 4 mg/kg. The “effect on blood pressure” value (dog) was “depressor response”.
With `O=c1n(CCCN2CCN(c3cccc(C(F)(F)F)c3)CC2)nc2ccccn12` [MJ 12762, 2-[3-[4-[3-(Trifluoromethyl)phenyl]-1-piperazinyl]propyl]-1,2,4-triazolo[4,3-a]pyridin-3(2H)-one] the “inhibition of pernicious preening, activity in words” value (mouse [1]) was “Inactive”, the “inhibition of pernicious preening, animals responding” value (mouse [1]; at 31 mg./kg.) was 2 of 10 and the ED50 (mouse [6]) was 6.1 mg/kg. For the same molecule, the “effect on the blood pressure response to 1-epinephrine (alpha-adrenergic blocking action)” value (alpha-adrenergic; intravenous doses of 1 and 10 mg./kg.) was “lack of alpha-adrenergic blocking action”, the “effect on spontaneous motor activity” value (mouse [2]; 20, 40 and 80 mg. per kg. orally) was “neither stimulation nor depression” and the “propensity for adverse reactions” value [7] was “significantly reduced propensity for adverse reactions”. The ED50 (mouse [4]) was 14 mg/kg, the “potency relative to trazodone, reserpine ptosis” value (mouse [4]; p.o., vs trazodone) was “two to three times more potent than trazodone” and the ED50 (mouse [8]) was 94 mg/kg. The “acute toxicity relative to trazodone” value (mouse [9]; mouse) was “somewhat greater than that of trazodone”, the “propensity for signs of overt pharmacologic activity unrelated to utility” value (mouse [9]; vs trazodone) was “reduced as compared to trazodone” and the TD50 [5] was 8 to 15.7 mg/kg. For the same molecule, the “effect on blood pressure” value (dog) was “without effect on blood pressure”, the LD50 (in vivo) was 250 to 500 mg/kg and the “antidepressant activity relative to trazodone” value [10] was “comparable in antidepressant activity to trazodone”.
